Reference: ChEMBL document CHEMBL1201862, “PubChem BioAssay data set” (2004)
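Cells were grown in 96-well plates and exposed to each compound for 48 hours at five concentrations; endpoints were interpolated linearly between bracketing concentrations, or set to the highest concentration if not reached. GI50 marks 50% less growth.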 Active and inactive are the calls of the source. Cut-off read from the data, not from the text of the source: active = GI50 up to about 1.1 µM and inactive = higher.

Columns and labels:
Test in all cases: DTP human tumour cell line panel, 48 h
HCC 2998 = tested on: HCC 2998
ACHN = tested on: ACHN
SN12C = tested on: SN12C
HCT-116 = tested on: HCT-116
RXF 393 = tested on: RXF 393
UACC-62 = tested on: UACC-62
COLO 205 = tested on: COLO 205
SF-268 = tested on: SF-268
SK-OV-3 = tested on: SK-OV-3
K562 = tested on: K562
SNB-19 = tested on: SNB-19
DU-145 = tested on: DU-145
SNB-75 = tested on: SNB-75
OVCAR-4 = tested on: OVCAR-4
SW-620 = tested on: SW-620
SF-295 = tested on: SF-295
NCI-H23 = tested on: NCI-H23
HOP-62 = tested on: HOP-62
KM12 = tested on: KM12
HT-29 = tested on: HT-29

Row | Structure (SMILES) | GI50 (HCC 2998) | GI50 (ACHN) | GI50 (SN12C) | GI50 (HCT-116) | GI50 (RXF 393) | GI50 (UACC-62) | GI50 (COLO 205) | GI50 (SF-268) | GI50 (SK-OV-3) | GI50 (K562) | GI50 (SNB-19) | GI50 (DU-145) | GI50 (SNB-75) | GI50 (OVCAR-4) | GI50 (SW-620) | GI50 (SF-295) | GI50 (NCI-H23) | GI50 (HOP-62) | GI50 (KM12) | GI50 (HT-29)
1 | CCOc1ccccc1-c1nc2c(s1)C(=O)c1ccccc1C2=O | 14.5 µM (inactive) | 14.9 µM (inactive) | 18.4 µM (inactive) | 15.2 µM (inactive) | 16 µM (inactive) | 3.78 µM (inactive) | 24.7 µM (inactive) | 12.6 µM (inactive) | 15 µM (inactive) | 4.61 µM (inactive) | 25.8 µM (inactive) | 19.4 µM (inactive) | 11.4 µM (inactive) | 9.68 µM (inactive) | 8 µM (inactive) | 12.6 µM (inactive) | 10.5 µM (inactive) | 15.4 µM (inactive) | 15.4 µM (inactive) | –
2 | CC(C)/C(Cl)=N\OC(=O)Nc1cccc(Cl)c1 | 17 µM (inactive) | 6.22 µM (inactive) | 16.1 µM (inactive) | 18.1 µM (inactive) | 18.5 µM (inactive) | 20.2 µM (inactive) | 2.08 µM (inactive) | 18.5 µM (inactive) | > 43.9 µM (inactive) | 2.07 µM (inactive) | > 100 µM (inactive) | 22.5 µM (inactive) | 13.9 µM (inactive) | 13.3 µM (inactive) | 2.97 µM (inactive) | 36.1 µM (inactive) | 15.2 µM (inactive) | > 46 µM (inactive) | 16.5 µM (inactive) | 15 µM (inactive)
3 | CCOP(=O)(OCC)OC1c2[nH]ccc2-c2cc(C(=O)OC)[nH]c2C1OC (centres undefined) | > 100 µM (inactive) | > 100 µM (inactive) | > 100 µM (inactive) | > 100 µM (inactive) | > 100 µM (inactive) | 45.8 µM (inactive) | > 100 µM (inactive) | > 100 µM (inactive) | > 100 µM (inactive) | > 100 µM (inactive) | > 100 µM (inactive) | > 100 µM (inactive) | 89.3 µM (inactive) | > 100 µM (inactive) | > 100 µM (inactive) | > 100 µM (inactive) | > 100 µM (inactive) | 87.3 µM (inactive) | 58.7 µM (inactive) | > 100 µM (inactive)
4 | Cc1nc2cc(/N=N/c3c(O)ccc4ccccc34)ccc2[nH]1 | > 50.5 µM (inactive) | 32.3 µM (inactive) | 36.9 µM (inactive) | 23.3 µM (inactive) | > 42.4 µM (inactive) | 46.3 µM (inactive) | 29.5 µM (inactive) | > 68.5 µM (inactive) | > 100 µM (inactive) | 23.9 µM (inactive) | > 96.4 µM (inactive) | 36 µM (inactive) | > 72.1 µM (inactive) | 18.8 µM (inactive) | 32.4 µM (inactive) | 41.1 µM (inactive) | > 62.2 µM (inactive) | > 64.7 µM (inactive) | 25.4 µM (inactive) | 40.6 µM (inactive)
5 | CC(=O)O[C@H]1[C@@H](OC2CCCC2(c2ccccc2)c2ccccc2)O[N+]([O-])=C[C@@H]1c1ccccc1 (some centres undefined) | 10.4 µM (inactive) | 5.07 µM (inactive) | 4.66 µM (inactive) | 3.24 µM (inactive) | 2.82 µM (inactive) | 4.66 µM (inactive) | 14.6 µM (inactive) | 5.01 µM (inactive) | 14.5 µM (inactive) | 4.41 µM (inactive) | 15.6 µM (inactive) | 5.75 µM (inactive) | 5.55 µM (inactive) | 6.46 µM (inactive) | 3.14 µM (inactive) | 8.13 µM (inactive) | 11.9 µM (inactive) | 16.6 µM (inactive) | 11.3 µM (inactive) | 2.51 µM (inactive)
6 | CCC1(c2ccc(OC)c(OC)c2)CCN2C(=O)C(O)CC21 (centres undefined) | > 100 µM (inactive) | > 100 µM (inactive) | > 100 µM (inactive) | > 100 µM (inactive) | > 100 µM (inactive) | > 100 µM (inactive) | > 100 µM (inactive) | > 100 µM (inactive) | > 100 µM (inactive) | > 100 µM (inactive) | > 100 µM (inactive) | > 100 µM (inactive) | > 100 µM (inactive) | > 100 µM (inactive) | > 100 µM (inactive) | > 100 µM (inactive) | > 100 µM (inactive) | > 100 µM (inactive) | > 100 µM (inactive) | > 100 µM (inactive)
7 | CSC(=S)Nc1cc(C)ccn1 | > 100 µM (inactive) | 70 µM (inactive) | 57.7 µM (inactive) | 70.5 µM (inactive) | > 100 µM (inactive) | > 100 µM (inactive) | 50.8 µM (inactive) | 70 µM (inactive) | > 100 µM (inactive) | 62.5 µM (inactive) | > 100 µM (inactive) | > 100 µM (inactive) | 29 µM (inactive) | 39.1 µM (inactive) | > 100 µM (inactive) | 76.7 µM (inactive) | > 100 µM (inactive) | > 100 µM (inactive) | > 100 µM (inactive) | > 100 µM (inactive)
8 | CCOc1ccc2nc3cc(/N=N/c4ccc(N)nc4N)ccc3c(N)c2c1 | 1.79 µM (inactive) | 18.2 µM (inactive) | 2.17 µM (inactive) | 1.66 µM (inactive) | 2.19 µM (inactive) | 14.8 µM (inactive) | 1.86 µM (inactive) | 1.64 µM (inactive) | 7 µM (inactive) | 0.299 µM (active) | 1.67 µM (inactive) | 6.65 µM (inactive) | 1.41 µM (inactive) | 6.92 µM (inactive) | 2.51 µM (inactive) | 22.6 µM (inactive) | 3.94 µM (inactive) | 3.75 µM (inactive) | 3.37 µM (inactive) | 3.5 µM (inactive)
9 | CC1=NC(=N)N=C(C)C1/N=N/c1ccc2[nH]c(C)nc2c1 (centres undefined) | > 100 µM (inactive) | > 100 µM (inactive) | > 100 µM (inactive) | > 100 µM (inactive) | > 100 µM (inactive) | > 100 µM (inactive) | > 100 µM (inactive) | > 100 µM (inactive) | > 100 µM (inactive) | > 100 µM (inactive) | > 100 µM (inactive) | > 100 µM (inactive) | > 100 µM (inactive) | > 100 µM (inactive) | > 100 µM (inactive) | > 100 µM (inactive) | > 100 µM (inactive) | > 100 µM (inactive) | > 100 µM (inactive) | > 100 µM (inactive)
10 | O=[N+]([O-])c1cnc(N(CCO)CCO)s1 | > 100 µM (inactive) | > 100 µM (inactive) | > 100 µM (inactive) | > 100 µM (inactive) | > 100 µM (inactive) | > 100 µM (inactive) | > 100 µM (inactive) | > 100 µM (inactive) | > 100 µM (inactive) | > 100 µM (inactive) | > 100 µM (inactive) | > 100 µM (inactive) | < 0.01 µM (active) | > 100 µM (inactive) | > 100 µM (inactive) | > 100 µM (inactive) | > 100 µM (inactive) | > 100 µM (inactive) | > 100 µM (inactive) | > 100 µM (inactive)
11 | NCCN1CCCCCc2ccccc21 | > 10 µM (inactive) | > 10 µM (inactive) | > 10 µM (inactive) | > 10 µM (inactive) | > 10 µM (inactive) | > 10 µM (inactive) | > 10 µM (inactive) | > 10 µM (inactive) | > 10 µM (inactive) | > 10 µM (inactive) | > 10 µM (inactive) | > 10 µM (inactive) | > 10 µM (inactive) | > 10 µM (inactive) | > 10 µM (inactive) | > 10 µM (inactive) | > 10 µM (inactive) | > 10 µM (inactive) | > 10 µM (inactive) | > 10 µM (inactive)
12 | O=[N+]([O-])C(=C(NCc1ccccc1)NCc1ccccc1)C(Cl)=C(Cl)Cl | 40.6 µM (inactive) | 21.6 µM (inactive) | 34.9 µM (inactive) | 30 µM (inactive) | 28 µM (inactive) | 30.9 µM (inactive) | 19.4 µM (inactive) | 20.8 µM (inactive) | 51.1 µM (inactive) | 22.3 µM (inactive) | 28.2 µM (inactive) | 69.3 µM (inactive) | 2.1 µM (inactive) | 31.7 µM (inactive) | 36.9 µM (inactive) | 24.5 µM (inactive) | 38.4 µM (inactive) | > 100 µM (inactive) | 20.3 µM (inactive) | 39.5 µM (inactive)
13 | COc1ccc(CC(C#N)c2cc(OC)c(OC)c(OC)c2)cc1 (centres undefined) | < 0.0416 µM (active) | 0.796 µM (active) | 0.135 µM (active) | 0.0466 µM (active) | 0.0575 µM (active) | 0.0275 µM (active) | 0.029 µM (active) | 0.204 µM (active) | 0.0474 µM (active) | 0.0248 µM (active) | 0.0986 µM (active) | 0.0422 µM (active) | 0.0475 µM (active) | 7.29 µM (inactive) | 0.0236 µM (active) | 0.0184 µM (active) | 0.109 µM (active) | 0.0869 µM (active) | 0.0194 µM (active) | 0.029 µM (active)
14 | C=C1C(=O)O[C@@H]2/C=C(/C)[C@@H](OC(C)=O)C[C@@H](O)/C(C)=C\[C@@H](OC(=O)[C@]3(C)O[C@@H]3C)[C@@H]12 | 18.2 µM (inactive) | 11.8 µM (inactive) | 12.3 µM (inactive) | 3.89 µM (inactive) | 15.5 µM (inactive) | 16.1 µM (inactive) | 6.89 µM (inactive) | 18.9 µM (inactive) | 45.8 µM (inactive) | 3.34 µM (inactive) | 47.4 µM (inactive) | 14.6 µM (inactive) | 19.5 µM (inactive) | 21.9 µM (inactive) | 5.98 µM (inactive) | 50.9 µM (inactive) | 17.3 µM (inactive) | 40.6 µM (inactive) | 17.5 µM (inactive) | 15.8 µM (inactive)
